Laboratory results from patent US20160139132A1, “Method of Diagnosis or Prognosis of a Neoplasm Comprising Determining the Level of Expression of a Protein in Stromal Cells Adjacent to the Neoplasm” (Thomas Jefferson University, priority 2009, published 2016).

Tests used:
[1] = system: MDA-MB-231 breast cancer cells co-injected with Cav-1-deficient stromal fibroblasts; assay: Human tumor xenograft: nude mice co-injected with MDA-MB-231 cells and Cav-1-deficient stromal fibroblasts, treated with glycolysis inhibitors; type: in vivo; conditions: given individually, dosage of 200 mg/kg
Procedure: Treatment with Glycolysis Inhibitors Functionally Blocks Cancer-Associated Fibroblast Induced Breast Cancer Tumor Growth. […] Mice co-injected with Cav-1-deficient stromal fibroblasts and MDA-MB-231 breast cancer cells were treated with glycolysis inhibitors. The efficacy of two well-established glycolysis inhibitors, namely 2-DG (2-deoxy-D-glucose) and DCA (dichloro-acetate), individually or in combination were tested.
To provide additional experimental validation for the idea that an absence of stromal Cav-1 promotes breast cancer tumor growth and angiogenesis, a 2-component cell-system using xenografts in immuno-deficient female nude mice was developed. Briefly, the flanks of nude mice were injected with a mixture of 1) MDA-MB-231 cells (a highly aggressive human breast cancer cell line; 1.0×10-6 cells) and 2) stromal fibroblasts, derived from either WT or Cav-1 (−/−) null mice (0.3×10-6 cells). After 3 weeks, nude mice were sacrificed and breast cancer-derived tumors were subjected to analysis for growth (tumor weight and volume measurements) and immuno-histochemistry with markers of angiogenesis, such as CD31 (a.k.a, PECAM1).
In this two-component system, nude mice are co-injected with i) human breast cancer ceils (MDA-MB-231), and ii) stromal fibroblasts (WT versus Cav-1 (−/−) deficient). […]

[2] = system: PD-ECGF/TP transfected cells; conditions: transfected compared with untransfected wild-type cells; Haraguchi (1993); cited from earlier work
[3] = system: neovascularization; conditions: Oikawa (1988); cited from earlier work
[4] = system: breast cancer patients; assay: Progression-free survival of breast cancer patients (tissue microarray cohort) by stromal Cav-1 and tamoxifen use; type: in vivo, human; conditions: Tamoxifen use Yes vs No (ref); adjusted for T stage, N stage, Cav-1 score
Procedure: Breast tissues for tissue microarray construction were obtained from the Surgical Pathology files at the University of Michigan with Institutional Review Board (IRB) approval. The TMA contained tissues derived from 154 largely consecutive patients with invasive carcinomas of the breast, with follow-up information treated at the University of Michigan from 1987-1991. Clinical and pathological variables were determined following well-established criteria. All invasive carcinomas were graded according to the method described by Elston and Ellis 17; Lymphovascular Invasion (LV1) was classified as either present or absent. […]
Cav-1 expression in the tumor stroma was assessed by employing a standard immuno-peroxidase method (DakoCytornation LSAB2 System-HRP, Carpinteria, Calif.), using rabbit polyclonal antl-Cav-1 TgG (N-20; directed against Ntenninal residues 2-21 of human Cav-1; Santa Cruz Biotechnology, Santa Cruz, Calif.; dilution 1:500). The staining was scored semi-quantitatively as negative (0; no staining), weak (1; either diffuse weak staining or strong staining in less than 30% of stromal cells per core) and strong (2; defined as strong staining of 30% or more of the stromal cells). […]
For each patient, the date of breast cancer diagnosis, date of last follow-up, vital status at last follow-up, causes of death (breast cancer or other), and breast cancer recurrence, were recorded. […]

[5] = system: Cav-1 in stromal fibroblasts co-cultured with MCF-7 cells; assay: Co-culture of MCF-7 breast cancer cells with normal human fibroblasts: Cav-1 down-regulation; type: cell-based; conditions: co-culture with MCF-7 cells
Source text: Using this system, it was observed that within 5 days of co-culture MCF-7 cells down-regulate the expression of Cav-1 in adjacent stromal fibroblasts. This occurs via the degradation of Cav-1 in lysosomal structures, and can be inhibited by chloroquine, an anti-lysomal agent. Most importantly, MCF-7 cells induce oxidative stress in the adjacent fibroblasts via the over-production of reactive oxygen species (ROS). ROS, in turn, is known to stabilize and activate certain transcription factors, such as NFkB and HIF. NFkB- and HIF-are the master regulators of “inflammation” and “hypoxia/aerobic glycolysis” in the tumor microenvironment. Thus, in order to detect the activation of NFkB and HIF only in the fibroblast cell population, two different fibroblast cell lines engineered to express either a NFkB-luciferase or HIF-luciferase transcriptional reporter were used. […] As such, NFkB is activated first, while HIF is activated on day 4 and day 5 of coculture, coincident with Cav-1 down-regulation. Thus, cancer cells induce the Warburg effect in adjacent stromal fibroblasts via the activation of NFkB and HIF-target genes, leading to inflammation and aerobic glycolysis. These findings provide a mechanistic basis for the “Reverse Warburg Effect”, and a new high-throughput drug-screening assay for the identification of novel compounds that block the “Reverse Warburg Effect”.

O=CC[C@@H](O)[C@H](O)[C@H](O)CO [2-DG, 2-deoxy-D-glucose]
effect on tumor growth [1]: no effect

C[C@H]1O[C@@H](n2cc(F)c(=O)[nH]c2=O)[C@H](O)[C@@H]1O [5′DFUR, 5′-deoxy-5-fluorouridine]
antitumor effect [2]: dramatic enhancement of antitumor effect

O=C(O)C(Cl)Cl [DCA, dichloro-acetate]
effect on tumor growth [1]: no effect

CC(=O)O[C@]1(C(C)=O)CC[C@H]2[C@@H]3C[C@H](C)C4=CC(=O)CC[C@]4(C)[C@H]3CC[C@@]21C [MPA, medroxyprogesterone acetate]
neovascularization [3]: potently inhibited

CC/C(=C(\c1ccccc1)c1ccc(OCCN(C)C)cc1)c1ccccc1 [Tamoxifen]
Cox regression of Progression-Free Survival (PFS): Coefficient [4]: −0.476

CCN(CC)CCCC(C)Nc1ccnc2cc(Cl)ccc12 (stereo not drawn) [chloroquine]
degradation of Cav-1 in lysosomal structures (Cav-1 down-regulation in adjacent stromal fibroblasts) [5]: inhibited
